In patent publication US20040091578A1 (priority 2001, published 2004):

What was measured:
[1] = molecular target: T1, NADP-Malate Dehydrogenase (Zea mays, UniProt P15719); assay: Activation of chloroplast NADP-malate dehydrogenase by thioredoxin-reduced proteins; format: biochemical, corn; conditions: 20 μg protein with DTT-reduced thioredoxin h
T1 construct: were purified from leaves of corn; from tissue; host or cells: corn leaves
Method: (§1) The NADP-MDH, FBPase, NTR and Thioredoxin h assay methods were according to Florencio, F. J. et al. (1988), Arch. Biochem. Biophys. 266:496-507 with slight modifications as indicated. For enzyme activation assays, the preincubation time was 20 min unless specified otherwise.
In one study 20 mM β-mercaptoethanol (β-MET) was used instead of DTT. Following preincubation, NADP-MDH was assayed spectrophoto-metrically.
(§2) The Wada et al., 1981 protocol was used for assaying NADP-malate dehydrogenase and fructose 1,6 bisphosphatase in the presence of thioredoxin and 2S protein. Assays were conducted under conditions in which the amount of added thioredoxin was sufficient to reduce the castor 2S protein but insufficient to activate the target enzyme appreciably. All assays were at 25° C. Unless otherwise indicated, the thioredoxin and NTR used were from E. coli. The 2S protein was monitored during purification by mBBr/SDS-polyacrylamide gel electrophoresis following its reduction by dithiothreitol and E. coli thioredoxin (Crawford et al., 1989; Kobrehel et al., 1991).

glutaredoxin = molecular target: T2, glutaredoxin (Escherichia coli, UniProt P68688); assay: Reduction by glutaredoxin, mBBr/SDS-PAGE with densitometric scanning; format: biochemical
T2 sequence (P68688 1-85): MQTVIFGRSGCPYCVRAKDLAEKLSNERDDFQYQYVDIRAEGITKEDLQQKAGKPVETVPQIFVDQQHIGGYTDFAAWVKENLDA
Method: Direct reduction of the proteins under study was determined by a modification of the method of Crawford et al. (Crawford, N. A. et al. (1989), Arch. Biochem. Biophys. 271:223-239). The reaction was carried out in 100 mM potassium phosphate buffer, pH 7.1, containing 10 mM EDTA and 16% glycerol in a final volume of 0.1 ml. As indicated, 0.7 μg (0.1 μM) NTR and 1 μg (0.8 μM) thioredoxin (both routinely from E. coli were added to 70 μl of the buffer solution containing 1 mM NADPH and 10 μg (2 to 17 μM) of target protein. When thioredoxin was reduced by dithiothreitol (DTT, 0.5 mM), NADPH and NTR were omitted. Assays with reduced glutathione were performed similarly, but at a final concentration of 1 mM. After incubation for 20 min, 100 nmoles of mBBr were added and the reaction was continued for another 15 min. To stop the reaction and derivatize excess mBBr, 10 μl of 10% SDS and 10 μl of 100 mM β-mercaptoethanol were added and the samples were then applied to the gels. […]
This ability was tested, using glutaredoxin from E. coli and the seed proteins currently under study. Reduction activity was monitored by the mBBr/SDS polyacrylamide gel electrophoresis procedure coupled with densitometric scanning.

Fructose Bisphosphatase = molecular target: T3, Fructose Bisphosphatase (Spinacia oleracea, UniProt P22418); assay: Activation of chloroplast fructose bisphosphatase by thioredoxin-reduced proteins; format: biochemical, spinach; conditions: 20 μg protein, 1 μg E. coli thioredoxin, DTT; corrected for thioredoxin alone
T3 construct: purified from leaves of corn (Jacquot, J.-P. et al. (1981), Plant Physiol. 68:300-304) and spinach; from tissue; host or cells: spinach leaves
T3 sequence (P22418 58-415): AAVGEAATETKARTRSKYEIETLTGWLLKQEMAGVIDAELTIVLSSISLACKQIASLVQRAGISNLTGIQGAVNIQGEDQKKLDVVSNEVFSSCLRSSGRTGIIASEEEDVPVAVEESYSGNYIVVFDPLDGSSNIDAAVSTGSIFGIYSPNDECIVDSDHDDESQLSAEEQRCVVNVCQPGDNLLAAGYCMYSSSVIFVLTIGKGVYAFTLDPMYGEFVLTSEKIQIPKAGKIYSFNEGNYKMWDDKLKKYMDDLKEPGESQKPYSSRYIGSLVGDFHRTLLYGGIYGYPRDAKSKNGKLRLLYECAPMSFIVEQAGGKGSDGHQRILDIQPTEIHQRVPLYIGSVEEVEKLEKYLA
Method: as §1, §2

T1 sequence (P15719 41-432): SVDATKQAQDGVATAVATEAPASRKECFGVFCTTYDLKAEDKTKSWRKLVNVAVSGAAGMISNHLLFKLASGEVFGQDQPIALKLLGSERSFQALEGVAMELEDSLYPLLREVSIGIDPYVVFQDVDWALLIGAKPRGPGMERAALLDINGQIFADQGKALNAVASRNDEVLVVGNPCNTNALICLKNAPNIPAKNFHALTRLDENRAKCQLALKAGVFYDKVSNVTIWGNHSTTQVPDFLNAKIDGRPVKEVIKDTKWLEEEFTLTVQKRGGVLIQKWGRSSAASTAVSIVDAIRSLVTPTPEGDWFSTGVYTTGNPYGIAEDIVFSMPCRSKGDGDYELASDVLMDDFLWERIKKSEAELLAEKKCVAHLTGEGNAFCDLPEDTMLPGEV

Substance: Aprotinin [Bovine lung (Aprotinin)]
- ACTIVITY, NADP-MDH [1]: Trace
- percentage reduction by glutaredoxin relative to E. coli thioredoxin (glutaredoxin): not affected
- ACTIVITY, FBPase (Fructose Bisphosphatase): 2 nkat/mg
